Measurements published in US9963660B2, “Method of cleaning with enhanced bacteriostatic action using a composition of alcohol and lactate esters” (Vertec Biosolvent, Inc., priority 2015, dated 2018).

How the values were obtained:
[1] = system: Listeria Monocytogenis ATCC 19115; assay: MiniTox bacteriostatic (MIC) test in microtiter plates; assay type: cell-based; details: diluted to the same extent as the blend
Source text: (§1) Methods to determine minimum inhibitory concentrations (MIC) of biocides or bacteriostatic agents that work in processing liquids to inhibit biological growth have been developed and optimized (U.S. Pat. No. 5,206,151). Typically, such MIC determinations involve (a) obtaining a known volume aliquot of the contaminated aqueous system and (b) adding thereto a known amount of an oxidation reduction indicator dye, which indicator dye is capable of reacting with dehydrogenase enzymes produced by the microbiological organisms, and also (c) adding sufficient nutrients capable of accelerating microbiological organism activity, thereby forming a reaction product between reducing enzymes and the oxidation-reduction indicator dye. Multiple aliquots of the indicator dye treated and nutrient treated, aqueous system are transferred to a microtitration plate containing multiple sample wells (d), each well containing but one of the multiple aliquots. (e) Serially diluted amounts of at least one antimicrobial agent is added to at least one column (or row) of these sample wells on the titration plate, provided that a single column (or row) is treated with only one antimicrobial agent, that at least one column (or row) is left untreated to thereby form a treated titration plate. The treated titration plate is incubated at a temperature essentially equivalent to the temperature of the contaminated aqueous system from which the aliquot was originally taken and maintained for a period of time sufficient to develop the change in the indicator dye color by the reaction of the indicator dye with reducing enzymes produced by nutrient acceleration of microbiological metabolism (f). The first change in color in dye relative to the untreated column is noted (g) to determine the minimum inhibitor concentration of antimicrobial agent that inhibits growth of microbiological organism contained in the contaminated aqueous system. Such a method is optimized under the Trademark of MiniToxTM and tests are routinely practiced and results provided by microbiological testing laboratories such as: The MicroStar Lab Ltd located at 130 Erick Street in Crystal Lake, Ill. 60014. […] This solution was kept as is at room temperature and hydrolysis of the ester continued. This solution was serially diluted with broth and media components for the MiniTox tests in microtiter plates. Two bacterial cultures Salmonella Choleraesuis ATCC 10708 and Listeria Monocytogenis ATCC 19115 were used for the studies. Bacteria of the Salmonella species are known pathogens that contaminate meat and vegetable types of food and Listeria species are known to contaminate milk and related foods.

[2] = system: Salmonella Choleraesuis ATCC 10708; assay: as above; assay type: cell-based; details: diluted to the same extent as the blend
Source text: as §1

[3] = Peanut butter removal from coated metal mesh strips (cleaning/solvating action); details: neat solvents, 40° C., 20 minutes dip, 90 minutes drying
Source text: Peanut butter is a complex mixture of fats, carbohydrates and proteins that are emulsified in processing equipment under controlled conditions. Because of its composition that contains all the major food groups and because the product is made by controlled food processing methods, peanut butter was chosen for an initial cleaning examination. Commercially available […]® peanut butter made by Best Foods Company was used. Commercially available metal screen mesh (size 20 mesh) was cut into small (25 mm×75 mm), equal sized strips that were dipped into heated (about 50° C.) peanut butter and then drip dried in air. […] The strips were then dried under forced air at room temperature and their weights were measured periodically. After 90 minutes of drying the test results were evaluated to determine the comparative differences between the effects of the solvent compositions. Commercial grade of ethanol is typically denatured by small quantities of additives. Ethyl acetate is an approved denaturant for ethanol and it is non-toxic for food and biological related applications. In all of the examples for this invention the ethanol used was denatured by about 5% (w/w) ethyl acetate.

[4] = for Viscosity: @ 25 C.
Source text: Properties of solvents are often evaluated and expressed in measured and calculated values of solubility parameters and a few other physical constants.

Row | SPd (Disperse solubility parameter) [4] | SPo (Hildebrand solubility parameter) [4] | SPp (Polar solubility parameter) [4] | Compound | Bacteriostatic activity alone, diluted to the same extent [1] | Bacteriostatic activity alone, diluted to the same extent [2] | Percent Removal [3] | SPh (hydrogen bonding parameter) [4] | Surface Tension [4] | Viscosity [4]
1 | 7.7 | 13.0 | 4.3 | CCO [Ethanol] | does not exhibit bacteriostatic activity | does not exhibit bacteriostatic activity | 20.4% | 9.5 | 22.2 mN/m | 0.43 Cp
2 |  |  |  | CCOC(=O)C(C)O (stereo not drawn) [Ethyl lactate] | does not exhibit bacteriostatic activity | does not exhibit bacteriostatic activity | 7.3% | 6.1 | 28.6 mN/m | 2.41 Cp
